Measured values: PubChem BioAssay (NCI)
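1) Cells in 96-well plates. 2) Compound, 48 h, 5 concentrations. 3) Linear interpolation between surrounding doses. 4) Unreached endpoint = highest concentration. At the TGI there is no net growth.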

Columns and labels:
Test in all cases: NCI anticancer screen, dose series, 48 h
[1] = system: 786-0 renal
[2] = system: A549 NSCLC
[3] = system: ACHN renal
[4] = system: BT-549 breast
[5] = system: CAKI-1 renal
[6] = system: CCRF-CEM leukemia
[7] = system: COLO 205 colon
[8] = system: DU-145 prostate
[9] = system: EKVX NSCLC
[10] = system: HCC-2998 colon
[11] = system: HCT-116 colon
[12] = system: HCT-15 colon
[13] = system: HL-60(TB) leukemia
[14] = system: HOP-62 NSCLC
[15] = system: HOP-92 NSCLC
[16] = system: HS 578T breast
[17] = system: HT29 colon
[18] = system: IGROV1 ovarian
[19] = system: K-562 leukemia
[20] = system: KM12 colon
[21] = system: LOX IMVI melanoma
[22] = system: M14 melanoma
[23] = system: MALME-3M melanoma
[24] = system: MCF7 breast
[25] = system: MDA-MB-231 breast
[26] = system: MDA-MB-435
[27] = system: MDA-N
[28] = system: NCI-H226 lung
[29] = system: NCI-H23 lung
[30] = system: NCI-H460 lung
[31] = system: NCI-H522 lung
[32] = system: NCI/ADR-RES ovarian
[33] = system: OVCAR-3 ovarian
[34] = system: OVCAR-4 ovarian
[35] = system: OVCAR-5 ovarian
[36] = system: OVCAR-8 ovarian
[37] = system: PC-3 prostate
[38] = system: RPMI-8226 leukemia
[39] = system: RXF 393 renal
[40] = system: SF-268 CNS
[41] = system: SF-295 CNS
[42] = system: SF-539 CNS
[43] = system: SK-MEL-2 melanoma
[44] = system: SK-MEL-28 melanoma
[45] = system: SK-MEL-5 melanoma
[46] = system: SK-OV-3 ovarian
[47] = system: SN12C renal
[48] = system: SNB-19 CNS
[49] = system: SNB-75 CNS
[50] = system: SR leukemia
[51] = system: T-47D breast
[52] = system: TK-10 renal
[53] = system: U251 CNS
[54] = system: UACC-257 melanoma
[55] = system: UACC-62 melanoma
[56] = system: UO-31 renal
[57] = system: MOLT-4 leukemia
[58] = system: SW-620 colon
[59] = system: A498 renal

O=c1oc2ccccc2c(Nc2ccc3c(c2)Sc2ccccc2O3)c1[N+](=O)[O-]
TGI [1]: 53.1 µM | TGI [2]: > 100 µM | TGI [3]: 44.7 µM | TGI [4]: 85.4 µM | TGI [5]: > 100 µM | TGI [6]: 81 µM | TGI [7]: 32.1 µM | TGI [8]: > 100 µM | TGI [9]: 90.6 µM | TGI [10]: 39.9 µM | TGI [11]: > 100 µM | TGI [12]: > 100 µM | TGI [13]: 49.7 µM | TGI [14]: > 100 µM | TGI [15]: 71.2 µM | TGI [16]: > 100 µM | TGI [17]: 65.9 µM | TGI [18]: > 100 µM | TGI [19]: 57.9 µM | TGI [20]: 94.3 µM | TGI [21]: > 100 µM | TGI [22]: > 100 µM | TGI [23]: 65.7 µM | TGI [24]: 43 µM | TGI [25]: 47.9 µM | TGI [26]: > 100 µM | TGI [27]: > 100 µM | TGI [28]: 76.5 µM | TGI [29]: 86.7 µM | TGI [30]: 55.3 µM | TGI [31]: 48 µM | TGI [32]: > 100 µM | TGI [33]: 47.5 µM | TGI [34]: > 100 µM | TGI [35]: > 100 µM | TGI [36]: > 100 µM | TGI [37]: 38.9 µM | TGI [38]: 37.8 µM | TGI [39]: 61.9 µM | TGI [40]: > 100 µM | TGI [41]: 60.6 µM | TGI [42]: 85 µM | TGI [43]: 54.7 µM | TGI [44]: 73.3 µM | TGI [45]: 32.4 µM | TGI [46]: > 100 µM | TGI [47]: > 100 µM | TGI [48]: > 100 µM | TGI [49]: 58.3 µM | TGI [50]: 57.3 µM | TGI [51]: 69.7 µM | TGI [52]: 53.9 µM | TGI [53]: 41.7 µM | TGI [54]: 55.7 µM | TGI [55]: > 100 µM | TGI [56]: > 100 µM

NC(N)=NS(=O)(=O)c1ccc(NNc2c3ccccc3nc3ccccc23)cc1
TGI [1]: 25.5 µM | TGI [2]: 45.4 µM | TGI [3]: 23.1 µM | TGI [4]: 28.5 µM | TGI [5]: 55.1 µM | TGI [6]: 25.4 µM | TGI [7]: 33.2 µM | TGI [8]: 21.3 µM | TGI [9]: 34.3 µM | TGI [10]: 27.3 µM | TGI [11]: 32.8 µM | TGI [12]: > 100 µM | TGI [13]: 43.9 µM | TGI [14]: 40.1 µM | TGI [15]: 31.5 µM | TGI [16]: 93.6 µM | TGI [17]: 27.2 µM | TGI [18]: 81.7 µM | TGI [19]: 30.9 µM | TGI [20]: 28.6 µM | TGI [21]: 18.2 µM | TGI [22]: 26.8 µM | TGI [23]: 32.8 µM | TGI [24]: 16.8 µM | TGI [25]: 37 µM | TGI [26]: 33.9 µM | TGI [27]: 28.4 µM | TGI [57]: 2.85 µM | TGI [28]: 20.5 µM | TGI [29]: 36.4 µM | TGI [30]: 23.4 µM | TGI [31]: 17.5 µM | TGI [32]: 90.7 µM | TGI [33]: 15.7 µM | TGI [34]: 21.7 µM | TGI [35]: 48.2 µM | TGI [36]: 31.1 µM | TGI [37]: 25.3 µM | TGI [38]: 44.9 µM | TGI [39]: 36 µM | TGI [40]: 34 µM | TGI [41]: 73 µM | TGI [42]: 36.7 µM | TGI [43]: 37.1 µM | TGI [44]: 29.2 µM | TGI [45]: 22.3 µM | TGI [46]: 40.3 µM | TGI [47]: 35.6 µM | TGI [48]: 37.3 µM | TGI [49]: 50.3 µM | TGI [50]: 13.7 µM | TGI [58]: 33.7 µM | TGI [51]: 41.9 µM | TGI [52]: 42.7 µM | TGI [53]: 24.2 µM | TGI [54]: 46.1 µM | TGI [55]: 35.3 µM | TGI [56]: 66.7 µM

CC(C)NC(=O)OCc1c2c(n(C)c1COC(=O)NC(C)C)-c1cc(Cl)c(Cl)cc1CC2
TGI [1]: > 100 µM | TGI [59]: 18.7 µM | TGI [2]: > 100 µM | TGI [3]: > 100 µM | TGI [4]: > 100 µM | TGI [6]: 65.6 µM | TGI [7]: 73.6 µM | TGI [8]: > 100 µM | TGI [9]: > 100 µM | TGI [10]: 32.7 µM | TGI [11]: 66.9 µM | TGI [12]: > 100 µM | TGI [14]: > 100 µM | TGI [15]: 70.9 µM | TGI [16]: > 100 µM | TGI [17]: > 100 µM | TGI [18]: 96 µM | TGI [19]: 41.6 µM | TGI [20]: 81.7 µM | TGI [21]: > 100 µM | TGI [22]: 66.6 µM | TGI [23]: > 100 µM | TGI [24]: 45.2 µM | TGI [25]: 55.3 µM | TGI [26]: > 100 µM | TGI [27]: > 100 µM | TGI [57]: 60.3 µM | TGI [28]: > 100 µM | TGI [29]: 87.9 µM | TGI [30]: > 100 µM | TGI [32]: > 100 µM | TGI [33]: 82.8 µM | TGI [34]: > 100 µM | TGI [35]: > 100 µM | TGI [36]: > 100 µM | TGI [37]: > 100 µM | TGI [38]: 64.8 µM | TGI [39]: 94.8 µM | TGI [40]: > 100 µM | TGI [41]: > 100 µM | TGI [42]: > 100 µM | TGI [43]: 72.8 µM | TGI [44]: > 100 µM | TGI [45]: > 100 µM | TGI [46]: > 100 µM | TGI [47]: > 100 µM | TGI [48]: > 100 µM | TGI [49]: 81.7 µM | TGI [50]: > 100 µM | TGI [58]: > 100 µM | TGI [51]: > 100 µM | TGI [52]: 84.5 µM | TGI [53]: 40.6 µM | TGI [54]: 86.8 µM | TGI [55]: > 100 µM | TGI [56]: > 100 µM
